Measurements published in ChEMBL document CHEMBL5727767, “1,2-substituted cyclopentanes as orexin receptor antagonists” (2020).

Legend:
[1] = target: T1, Orexin/Hypocretin receptor type 1 (Homo sapiens, UniProt O43613); assay type: cell-based
T1 sequence (O43613 whole entry): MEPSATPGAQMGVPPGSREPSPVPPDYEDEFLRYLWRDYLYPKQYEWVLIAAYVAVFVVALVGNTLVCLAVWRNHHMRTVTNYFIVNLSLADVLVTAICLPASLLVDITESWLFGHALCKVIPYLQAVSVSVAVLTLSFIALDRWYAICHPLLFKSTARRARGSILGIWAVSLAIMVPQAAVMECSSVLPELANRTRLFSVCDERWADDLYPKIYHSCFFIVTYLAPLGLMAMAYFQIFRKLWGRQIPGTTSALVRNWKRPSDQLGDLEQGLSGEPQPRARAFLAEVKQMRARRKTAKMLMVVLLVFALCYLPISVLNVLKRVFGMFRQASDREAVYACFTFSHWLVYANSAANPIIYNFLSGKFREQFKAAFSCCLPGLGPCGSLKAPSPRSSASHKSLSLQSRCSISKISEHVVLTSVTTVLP

Orexin receptor type 2 = target: T2, Orexin receptor type 2 (Homo sapiens, UniProt O43614); assay type: cell-based
T2 sequence (O43614 whole entry): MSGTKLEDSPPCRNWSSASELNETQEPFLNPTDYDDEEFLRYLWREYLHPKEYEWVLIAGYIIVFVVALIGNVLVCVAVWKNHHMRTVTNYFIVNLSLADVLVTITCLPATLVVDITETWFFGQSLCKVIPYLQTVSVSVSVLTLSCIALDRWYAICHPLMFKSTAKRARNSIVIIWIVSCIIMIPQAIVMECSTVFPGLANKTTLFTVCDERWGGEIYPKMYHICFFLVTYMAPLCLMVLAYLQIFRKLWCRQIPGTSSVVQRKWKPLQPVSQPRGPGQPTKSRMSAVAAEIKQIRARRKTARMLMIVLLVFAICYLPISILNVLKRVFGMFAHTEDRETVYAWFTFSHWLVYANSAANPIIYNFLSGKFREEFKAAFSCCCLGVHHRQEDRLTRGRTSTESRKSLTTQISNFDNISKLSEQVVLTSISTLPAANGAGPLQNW

IC50 [1]: 0.27 µM
IC50 (Orexin receptor type 2): > 10 µM
SMILES: Cc1ccc(-n2nccn2)c(C(=O)N[C@@H]2CCC[C@@H]2Nc2ccc(Cl)cn2)c1
